Entries after “also recorded” stand apart in the source; their conditions may differ. Where two headings read alike, the source gives them in different places.
Legend:
[1] = biological target: T1, BIRC2-BIR3 domain (Homo sapiens, UniProt Q13490); experiment: Differential scanning fluorimetry (DSF); conditions: for Mean, ΔTm [°C] (Supplementary Table S1): mean of n=3, difference to DMSO control; for ΔTm [°C] (Supplementary Table S1): technical replicate; for ΔTm at 40 µM: read-out: DSF Assay ΔTm
Description: Purified proteins were buffered in DSF buffer (25 mM HEPES pH 7.5, 500 mM NaCl) and were assayed in a 384-well plate (Thermo, #BC3384) with a final protein concentration of 20 μM in 10 μL final assay volume. Inhibitors were added in excess to a final concentration of 40 μM, using an ECHO 550 acoustic dispenser (Labcyte). As a fluorescent probe, SYPRO-Orange (Molecular Probes) was used at 5x final concentration. […] Data was analyzed using Boltzmann-equation in the Protein Thermal Shift software (Applied Biosystems). Samples were measured in technical triplicates.
The assay was run in the presence of DMSO to exclude DMSO influences towards melting temperature differences when testing small molecules (Figures 2C,D).

[2] = biological target: BIRC2 (Homo sapiens, UniProt Q13490); experiment: NanoBRET cellular target engagement, full-length BIRC2
Sequence of BIRC2 (Q13490 whole entry): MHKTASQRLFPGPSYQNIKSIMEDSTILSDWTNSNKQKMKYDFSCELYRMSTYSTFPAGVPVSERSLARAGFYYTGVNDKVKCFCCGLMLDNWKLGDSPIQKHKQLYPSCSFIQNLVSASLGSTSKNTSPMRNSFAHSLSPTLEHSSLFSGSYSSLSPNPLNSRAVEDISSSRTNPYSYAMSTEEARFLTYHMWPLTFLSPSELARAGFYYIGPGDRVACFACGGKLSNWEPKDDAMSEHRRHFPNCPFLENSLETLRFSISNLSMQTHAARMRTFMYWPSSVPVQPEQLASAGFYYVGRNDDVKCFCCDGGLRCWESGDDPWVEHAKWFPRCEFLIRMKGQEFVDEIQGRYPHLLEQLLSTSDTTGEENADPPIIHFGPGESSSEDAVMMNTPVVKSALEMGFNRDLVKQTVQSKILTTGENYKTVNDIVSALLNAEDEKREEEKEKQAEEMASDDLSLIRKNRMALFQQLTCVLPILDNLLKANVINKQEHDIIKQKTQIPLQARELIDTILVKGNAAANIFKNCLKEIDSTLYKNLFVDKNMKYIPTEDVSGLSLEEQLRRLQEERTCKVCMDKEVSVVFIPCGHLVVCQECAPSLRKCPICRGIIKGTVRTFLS
Description: (§1) In brief: Constructs contained the cDNA of full-length or single domains cloned in frame with an N-terminal NanoLuc-fusion as specified in Supplementary Table S2. Plasmids were transfected into HEK293T cells using FuGENE HD (Promega, E2312) and proteins were allowed to express for 20 h. […] The corresponding transfected cells were added and reseeded at a density of 2.5^5 cells/mL after trypsinization and resuspending in Opti-MEM without phenol red (Life Technologies). […] Competitive displacement data were then graphed using GraphPad Prism 9.3 software using a normalized 3-parameter curve fit with the following equation: Y = 100/(1 + 10^(X-LogIC50)).

[3] = biological target: BIRC3 (Homo sapiens, UniProt Q13489); experiment: NanoBRET cellular target engagement, full-length BIRC3
Sequence of BIRC3 (Q13489 whole entry): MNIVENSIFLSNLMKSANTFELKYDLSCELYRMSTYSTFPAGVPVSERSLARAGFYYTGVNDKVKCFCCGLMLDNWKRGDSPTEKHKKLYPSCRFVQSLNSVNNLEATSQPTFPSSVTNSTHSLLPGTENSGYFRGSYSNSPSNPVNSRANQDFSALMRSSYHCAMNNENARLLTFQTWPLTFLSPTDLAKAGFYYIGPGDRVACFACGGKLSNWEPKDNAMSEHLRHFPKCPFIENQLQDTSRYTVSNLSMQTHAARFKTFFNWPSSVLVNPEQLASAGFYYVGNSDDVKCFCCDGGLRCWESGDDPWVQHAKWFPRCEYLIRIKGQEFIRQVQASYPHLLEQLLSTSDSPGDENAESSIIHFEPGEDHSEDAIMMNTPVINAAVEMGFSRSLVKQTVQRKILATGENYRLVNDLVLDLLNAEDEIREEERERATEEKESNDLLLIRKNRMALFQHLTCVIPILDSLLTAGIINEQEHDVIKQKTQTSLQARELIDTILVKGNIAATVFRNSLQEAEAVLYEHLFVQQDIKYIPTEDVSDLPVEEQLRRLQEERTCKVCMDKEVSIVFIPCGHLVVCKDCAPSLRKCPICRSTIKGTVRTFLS

[4] = biological target: BIRC4 (Homo sapiens, UniProt P98170); experiment: NanoBRET cellular target engagement, full-length BIRC4
Sequence of BIRC4 (P98170 whole entry): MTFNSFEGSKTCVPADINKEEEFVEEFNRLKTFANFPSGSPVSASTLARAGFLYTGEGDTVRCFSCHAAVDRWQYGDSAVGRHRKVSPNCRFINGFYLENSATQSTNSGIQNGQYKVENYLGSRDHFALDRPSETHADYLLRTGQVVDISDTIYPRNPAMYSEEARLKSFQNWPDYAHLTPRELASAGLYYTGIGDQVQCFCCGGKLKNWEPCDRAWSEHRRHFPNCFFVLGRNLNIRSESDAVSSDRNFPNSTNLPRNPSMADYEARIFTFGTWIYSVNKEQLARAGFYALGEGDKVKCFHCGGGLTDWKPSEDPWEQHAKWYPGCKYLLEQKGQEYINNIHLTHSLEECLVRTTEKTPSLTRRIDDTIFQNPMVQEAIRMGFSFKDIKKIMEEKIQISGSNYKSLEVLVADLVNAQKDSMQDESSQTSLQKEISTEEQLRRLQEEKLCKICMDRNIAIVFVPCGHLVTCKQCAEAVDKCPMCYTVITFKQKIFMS
Description: as §1

[5] = biological target: T2, BIRC7 (Homo sapiens, UniProt Q96CA5); experiment: NanoBRET cellular target engagement, full-length BIRC7
T2 sequence (Q96CA5 1-298): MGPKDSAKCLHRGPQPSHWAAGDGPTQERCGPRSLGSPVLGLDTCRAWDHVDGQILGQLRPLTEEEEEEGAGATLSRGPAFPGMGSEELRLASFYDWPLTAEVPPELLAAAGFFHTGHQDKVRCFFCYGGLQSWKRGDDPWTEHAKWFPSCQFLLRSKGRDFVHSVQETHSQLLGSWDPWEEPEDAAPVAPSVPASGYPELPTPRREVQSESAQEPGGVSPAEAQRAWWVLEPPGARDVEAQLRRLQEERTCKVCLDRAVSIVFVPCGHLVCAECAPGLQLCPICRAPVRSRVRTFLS
Description: as §1

[6] = biological target: T3, BIRC8 (Homo sapiens, UniProt Q96P09); experiment: NanoBRET cellular target engagement, full-length BIRC8
T3 sequence (Q96P09 1-236): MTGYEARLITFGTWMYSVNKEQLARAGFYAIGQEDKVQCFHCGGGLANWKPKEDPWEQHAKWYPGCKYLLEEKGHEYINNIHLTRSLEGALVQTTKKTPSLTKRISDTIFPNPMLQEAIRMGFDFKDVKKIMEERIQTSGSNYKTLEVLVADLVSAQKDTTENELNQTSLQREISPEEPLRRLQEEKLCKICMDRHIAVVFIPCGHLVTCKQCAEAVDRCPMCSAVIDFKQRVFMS
Description: as §1

[7] = biological target: T4, BIRC7 BIR (Homo sapiens, UniProt Q96CA5); experiment: NanoBRET cellular target engagement, single domain BIRC7 BIR
T4 sequence (Q96CA5 70-176): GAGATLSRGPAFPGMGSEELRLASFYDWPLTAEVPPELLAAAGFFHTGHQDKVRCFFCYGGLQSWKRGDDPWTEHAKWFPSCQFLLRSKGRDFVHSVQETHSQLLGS
Description: as §1

[8] = biological target: T5, BIRC8 BIR (Homo sapiens, UniProt Q96P09); experiment: NanoBRET cellular target engagement, single domain BIRC8 BIR
T5 sequence (Q96P09 1-90): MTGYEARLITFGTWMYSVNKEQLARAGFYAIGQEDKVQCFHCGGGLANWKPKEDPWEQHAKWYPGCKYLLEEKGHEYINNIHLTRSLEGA

[9] = biological target: BIRC2 BIR2 (Homo sapiens, UniProt Q13490); experiment: NanoBRET cellular target engagement, single domain BIRC2 BIR2
Sequence of BIRC2 BIR2 (Q13490 165-267): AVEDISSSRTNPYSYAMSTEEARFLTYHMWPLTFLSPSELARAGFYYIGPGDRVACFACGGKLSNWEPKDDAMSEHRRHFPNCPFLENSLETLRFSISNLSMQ

[10] = biological target: BIRC3 BIR2 (Homo sapiens, UniProt Q13489); experiment: NanoBRET cellular target engagement, single domain BIRC3 BIR2
Sequence of BIRC3 BIR2 (Q13489 147-253): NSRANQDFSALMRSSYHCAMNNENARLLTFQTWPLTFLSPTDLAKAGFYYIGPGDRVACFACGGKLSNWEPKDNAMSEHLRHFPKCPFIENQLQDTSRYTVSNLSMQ
Description: as §1

[11] = biological target: BIRC2 BIR3 (Homo sapiens, UniProt Q13490); experiment: NanoBRET cellular target engagement, single domain BIRC2 BIR3
Sequence of BIRC2 BIR3 (Q13490 251-372): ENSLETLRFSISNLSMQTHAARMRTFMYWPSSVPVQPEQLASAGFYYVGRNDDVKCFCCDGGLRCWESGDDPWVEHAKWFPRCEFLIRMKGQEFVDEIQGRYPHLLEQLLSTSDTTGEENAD
Description: as §1

[12] = biological target: BIRC3 BIR3 (Homo sapiens, UniProt Q13489); experiment: NanoBRET cellular target engagement, single domain BIRC3 BIR3
Sequence of BIRC3 BIR3 (Q13489 236-360): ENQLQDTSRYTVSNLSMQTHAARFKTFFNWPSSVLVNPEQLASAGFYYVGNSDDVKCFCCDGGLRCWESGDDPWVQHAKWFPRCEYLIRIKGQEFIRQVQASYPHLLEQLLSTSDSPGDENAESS
Description: as §1

[13] = biological target: T6, BIRC1 BIR[2] (Homo sapiens, UniProt Q13075); experiment: NanoBRET cellular target engagement, single domain BIRC1 BIR[2]
T6 sequence (Q13075 139-251): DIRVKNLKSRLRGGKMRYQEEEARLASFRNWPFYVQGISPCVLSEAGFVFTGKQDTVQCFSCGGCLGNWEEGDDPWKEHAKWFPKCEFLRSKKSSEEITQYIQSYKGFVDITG

[14] = biological target: T1, BIRC2-BIR3 domain; experiment: Fluorescence polarization (FP) competition assay with fluorescent SMAC probe; format: binding; set-up: BIRC2-BIR3 domain (260–352) was expressed; His6 (N, cleaved yes); GST (N, cleaved yes); made in house; host or cells: E. coli; conditions: for Ki: read-out: FP Assay K I Values
Description: Resulting data was plotted using GraphPad Prism 9.3 software and analyzed using a nonlinear fit to calculate the probe IC50. […] Compounds were titrated from 20 μM to 20 nM using an ECHO 550 acoustic dispenser (Labcyte) incubated for 1 h at room temperature and subsequent read out.
The assay is based on the displacement of a fluorescent SMAC mimetic from the binding site.

[15] = biological target: T1, BIRC2-BIR3 domain; experiment: Isothermal titration calorimetry (ITC); format: binding; set-up: BIRC2-BIR3 domain (260–352) was expressed; His6 (N, cleaved yes); GST (N, cleaved yes); made in house; host or cells: E. coli
Description: For this protocol, the chamber was pre-equilibrated with the test compound, and the BIRC2-BIR3 domain was titrated in while continuously measuring the rate of exothermic heat evolution. The heat of binding was integrated, corrected, and fitted to an independent single-binding site model based on the manufacturer’s instructions, from which thermodynamic parameters (ΔH and TΔS), equilibrium association and dissociation constants (K A and K D, respectively), and stoichiometry (n) were calculated.

[16] = 25°C, duplicates, mean ± SD, read-out: K D Measured in ITC

T1 sequence (Q13490 260-352): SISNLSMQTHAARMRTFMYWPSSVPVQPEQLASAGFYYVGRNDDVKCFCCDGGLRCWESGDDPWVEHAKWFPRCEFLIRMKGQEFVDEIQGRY

Compound	Mean, ΔTm [°C] (Supplementary Table S1) [1]	ΔTm [°C] (Supplementary Table S1) ([1]; first column)	ΔTm [°C] (Supplementary Table S1) ([1]; second column)	ΔTm [°C] (Supplementary Table S1) ([1]; third column)	ΔTm at 40 µM [1] [°C]	EC50 [2] [nM]	EC50 [3] [nM]	EC50 [4] [nM]	EC50 [6] [nM]	EC50 [8] [nM]	EC50 [9] [nM]	EC50 [10] [nM]	EC50 [11] [nM]	EC50 [12] [nM]	EC50 [13] [nM]	Ki [14] [nM]	Kd [15, 16] [nM]	EC50 [5] [nM]	EC50 [7] [nM]	further results
Oc1c(CN2CCCC2)cc(COCc2ccccc2)c2cccnc12 [UC-112]	0.3	0.4	0.3	0.2	–	–	–	–	–	–	–	–	–	–	–	–	–	–	–	EC50 ([2]; read-out: EC50 ± SEM NanoBRET BIRC2, full-length, HEK293T, n = 4): > 50000 nM; EC50 ([3]; read-out: EC50 ± SEM NanoBRET BIRC3, full-length, HEK293T, n = 4): > 50000 nM; EC50 ([4]; read-out: EC50 ± SEM NanoBRET BIRC4, full-length, HEK293T, n = 4): > 50000 nM; EC50 ([5]; read-out: EC50 ± SEM NanoBRET BIRC7, full-length, HEK293T, n = 4): > 50000 nM; EC50 ([6]; read-out: EC50 ± SEM NanoBRET BIRC8, full-length, HEK293T, n = 4): > 50000 nM; EC50 ([7]; read-out: EC50 ± SEM NanoBRET BIRC7 BIR, single domain, HEK293T, n = 4): > 50000 nM; EC50 ([8]; read-out: EC50 ± SEM NanoBRET BIRC8 BIR, single domain, HEK293T, n = 4): > 50000 nM; EC50 ([9]; read-out: EC50 ± SEM NanoBRET BIRC2 BIR2, single domain, HEK293T, n = 4): > 50000 nM; EC50 ([10]; read-out: EC50 ± SEM NanoBRET BIRC3 BIR2, single domain, HEK293T, n = 4): > 50000 nM; EC50 ([11]; read-out: EC50 ± SEM NanoBRET BIRC2 BIR3, single domain, HEK293T, n = 4): > 50000 nM; EC50 ([12]; read-out: EC50 ± SEM NanoBRET BIRC3 BIR3, single domain, HEK293T, n = 4): > 50000 nM; EC50 ([13]; read-out: EC50 ± SEM NanoBRET BIRC1 BIR[2], single domain, HEK293T, n = 4): > 50000 nM; FP Assay K I Values ([14]; BIRC2 BIR3 domain, Cheng-Prusoff from IC50, mean ± SD, n = 3): binding could not be shown; also recorded: no interaction at all; K D Measured in ITC ([15]; 25°C, duplicates, mean ± SD): no binding
CN[C@@H](C)C(=O)N[C@H](C(=O)N1CCC[C@H]1C(=O)Nc1sc(-c2ncco2)nc1-c1ccccc1)C1CCCCC1 [CUDC-427]	10.9	10.9	10.9	–	10.8 ± 0.1	622 ± 232	739 ± 108	190 ± 26.9	218 ± 48.3	272 ± 6.1	15400 ± 8970	14800 ± 636	54.4 ± 1	20 ± 3.1	10100 ± 1230	2.9 ± 0.3	44.7 ± 11.8	–	–	–
CN[C@@H](C)C(=O)N[C@H]1CN(C(=O)CC(C)C)CC[C@H]2CC[C@@H](C(=O)NC(c3ccccc3)c3ccccc3)N2C1=O [AT406]	–	11.8	11.8	11.4	11.6 ± 0.2	–	62 ± 8.5	28.5 ± 5.2	69.3 ± 21.1	69.6 ± 0.3	–	8135 ± 52.3	–	5.2 ± 1.2	467 ± 21	–	–	25.1 ± 5.2	18 ± 4.5	–
CN[C@@H](C)C(=O)N[C@H](C(=O)N1CCC[C@H]1C(=O)N[C@@H]1CCCc2ccccc21)C1CCCCC1 [A 410099.1]	–	–	–	–	–	4.6 ± 0.2	9.2 ± 1	–	93.9 ± 9.3	108 ± 7.5	333 ± 35.4	681 ± 68	0.4 ± 0.2	1.5 ± 0.2	1230 ± 325	2 ± 1.1	37.5 ± 6.1	19.9 ± 2.6	17 ± 2.4	gain in potency on single BIR3 domain compared to full-length protein ([11]; NanoBRET, single BIR3 domain vs full-length): about 10 fold; IC50 ([14]; BIRC2 BIR3 domain, 5 nM probe, 30 nM protein, approximations, read-out: FP assay IC50 (estimated)): 5.4 nM; ITC ΔG ([15]; 25°C): -10.04 kcal/mol; ITC ΔH ([15]; 25°C): -8.23 kcal/mol; Kd ([15]; 25°C, exemplary titration, read-out: ITC KD (Figure 2E,F)): 43.6 nM; ITC stoichiometry n ([15]; exemplary titration, Figure 2E,F): 1.074

From article PMC9204419, “A Toolbox for the Generation of Chemical Probes for Baculovirus IAP Repeat Containing Proteins” (Frontiers in Cell and Developmental Biology, 2022)
